Assay results reported in patent publication US20210024507A1, “Compounds” (Step Pharma S.A.S., priority 2018, published 2021).
Where two headings read alike, the source gives them in different places.

Molecular target: T1, human CTPS1 (Homo sapiens, UniProt P17812)
T1 construct: purchased Proteros biostructures GmbH
T1 sequence (P17812 1-591): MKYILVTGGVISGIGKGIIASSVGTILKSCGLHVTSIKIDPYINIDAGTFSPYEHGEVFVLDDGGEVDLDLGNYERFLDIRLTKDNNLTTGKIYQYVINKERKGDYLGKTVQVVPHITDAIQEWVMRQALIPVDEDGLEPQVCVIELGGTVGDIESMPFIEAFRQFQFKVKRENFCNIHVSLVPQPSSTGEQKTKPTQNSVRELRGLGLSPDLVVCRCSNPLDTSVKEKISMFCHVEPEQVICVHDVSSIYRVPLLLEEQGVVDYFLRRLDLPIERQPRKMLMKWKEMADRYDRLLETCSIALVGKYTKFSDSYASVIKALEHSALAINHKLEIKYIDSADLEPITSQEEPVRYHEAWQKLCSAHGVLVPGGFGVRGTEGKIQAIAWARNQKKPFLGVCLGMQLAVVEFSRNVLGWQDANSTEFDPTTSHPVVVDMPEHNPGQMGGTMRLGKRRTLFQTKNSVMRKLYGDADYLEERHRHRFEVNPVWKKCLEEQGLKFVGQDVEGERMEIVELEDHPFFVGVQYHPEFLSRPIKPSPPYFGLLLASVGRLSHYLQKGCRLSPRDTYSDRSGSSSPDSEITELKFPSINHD
Experiment: Human CTPS1 enzyme inhibition (ADP-Glo Max assay)
Assay type: biochemical
Details: human full length CTPS1, 25° C.
Description: The enzyme inhibitory activities of compounds invented against the target of interest were determined using the ADP-GIoTM Max assay (Promega, UK). Assays for human CTPS1 were performed in lx assay buffer containing 50mM Tris, 10mM MgCl2, 0.01% Tween-20, pH to 8.0 accordingly. Finally, immediately before use, L-cysteine was added to the lx assay buffer to a final concentration of 2mM. All reagents are from Sigma-Aldrich unless specified otherwise. Human full length active C-terminal FLAG-Hiss-tag CTPS1 (UniProtKB - P17812, CTPS[1-591]-[…]) was obtained from Proteros biostructures GmbH.
Assay Procedure 3× human CTPS1 protein was prepared in lx assay buffer to the final working protein concentration required for the reaction. A 2uL volume per well of 3x human CTPS1 protein was mixed with 2uL per well of 3× test compound (compound prepared in lx assay buffer to an appropriate final 3× compound concentration respective to the concentration response curve designed for the compounds under test) for 10 minutes at 25° C. The enzymatic reaction was then initiated by addition of a 2uL per well volume of a pre-mixed substrate mix (UltraPure ATP from ADP-GIo™ Max kit (0.31mM), GTP (0.034mM), UTP (0.48mM) and L-glutamine (0.186mM)) and the mixture was incubated for an appropriate amount of time within the determined linear phase of the reaction at 25° C. under sealed plate conditions with constant agitation at 500 revolutions per minute (rpm). ADP-GIo™ Max reagent was added for 60 minutes ([…] per well) and subsequently ADP-GIo™ Max development reagent was added for 60 minutes (12uL per well) prior to signal detection in a microplate reader (EnVision® Multilabel Reader, Perkin Elmer). Following each reagent addition over the course of the assay, assay plates were pulse centrifuged for 30 seconds at 500rpm.
In all cases, the enzyme converts ATP to ADP and the ADP-GIo™ Max reagent subsequently depletes any remaining endogenous ATP in the reaction system. The ADP-GIo™ Max detection reagent converts the ADP that has been enzymatically produced back into ATP and using ATP as a substrate together with luciferin for the enzyme luciferase, light is generated which produces a detectable luminescence. […] The percentage inhibition produced by each concentration of compound was calculated using the equation shown below: […]
Percentage inhibition was then plotted against compound concentration, and the 50% inhibitory concentration (IC50) was determined from the resultant concentration-response curve.

[1] = read-out: CTPS1 (Human CTPS1 Enzyme Inhibition, IC50 grouped by potency range)

| IC50 [1] [nM] | IC50 (numeric value printed instead of class symbol, read-out: CTPS1 (Human CTPS1 Enzyme Inhibition, IC50)) [nM] | Structure (SMILES) |
| --- | --- | --- |
| 1000 to 10000 | – | CCC(C(=O)Nc1ccc(-c2cccnc2)cn1)c1ccnc(NS(=O)(=O)C2CC2)n1 (stereo not shown) [P86, N-([3,3′-bipyridin]-6-yl)-2-(2-(cyclopropanesulfonamido)pyrimidin-4-yl)butanamide] |
| 100 to 1000 | – | CCC(NC(=O)c1ccc(-c2cncc(C(F)(F)F)c2)cc1)c1ccnc(NS(=O)(=O)C2CC2)n1 (stereo not shown) [P213, N-(1-(2-(cyclopropanesulfonamido)pyrimidin-4-yl)propyl)-4-(5-(trifluoromethyl)pyridin-3-yl)benzamide] |
| 100 to 1000 | – | CCOc1cncc(-c2ccc(C(=O)NC(CC)c3cncc(NS(=O)(=O)C4CC4)n3)c(F)c2)n1 (stereo not shown) [P223, N-(1-(6-(cyclopropanesulfonamido)pyrazin-2-yl)propyl)-4-(6-ethoxypyrazin-2-yl)-2-fluorobenzamide] |
| ≤ 100 | – | CCOc1cncc(-c2ccc(NC(=O)C(CC)c3nccc(NS(=O)(=O)C4CC4)n3)nc2)n1 (stereo not shown) [P208, 2-(4-(cyclopropanesulfonamido)pyrimidin-2-yl)-N-(5-(6-ethoxypyrazin-2-yl)pyridin-2-yl)butanamide] |
| 100 to 1000 | – | CCC(C(=O)Nc1ccc(-c2cnccn2)cc1F)c1ccnc(NS(=O)(=O)C2CC2)n1 (stereo not shown) [P6, 2-(2-(Cyclopropanesulfonamido)pyrimidin-4-yl)-N-(2-fluoro-4-(pyrazin-2-yl)phenyl)butanamide] |
| 100 to 1000 | – | CCOc1cncc(-c2ccc(C(=O)NC(CC)c3cncc(NS(=O)(=O)C4CC4)n3)c(F)c2)n1 (single isomer, unassigned) [P224, N-(1-(6-(cyclopropanesulfonamido)pyrazin-2-yl)propyl)-4-(6-ethoxypyrazin-2-yl)-2-fluorobenzamide] |
| ≤ 100 | – | CCOc1cncc(-c2ccc(NC(=O)C(OC)c3cncc(NS(=O)(=O)C4CC4)n3)nc2)n1 (stereo not shown) [P203, 2-(6-(cyclopropanesulfonamido)pyrazin-2-yl)-N-(5-(6-ethoxypyrazin-2-yl)pyridin-2-yl)-2-methoxyacetamide] |
| 1000 to 10000 | – | CCC(C(=O)Nc1ccc(-c2cccnc2)cc1F)c1ccnc(NS(=O)(=O)C2CC2)n1 (stereo not shown) [P93, 2-(2-(cyclopropanesulfonamido)pyrimidin-4-yl)-N-(2-fluoro-4-(pyridin-3-yl)phenyl)butanamide] |
| 100 to 1000 | – | CCC(C(=O)Nc1ccc(-c2cncc(OC(C)C)c2)cc1F)c1ccnc(NS(=O)(=O)C2CC2)n1 (stereo not shown) [P92, 2-(2-(cyclopropanesulfonamido)pyrimidin-4-yl)-N-(2-fluoro-4-(5-isopropoxypyridin-3-yl)phenyl)butanamide] |
| ≤ 100 | – | CCC(NC(=O)c1ccc(-c2cncc(OC(C)C)n2)cc1)c1ccnc(NS(=O)(=O)C2CC2)n1 (stereo not shown) [P218, N-(1-(2-(cyclopropanesulfonamido)pyrimidin-4-yl)propyl)-4-(6-isopropoxypyrazin-2-yl)benzamide] |
| 100 to 1000 | – | CCC(C(=O)Nc1ccc(-c2cncc(C(F)(F)F)n2)cn1)c1cccc(NS(=O)(=O)C2CC2)n1 (stereo not shown) [P187, 2-(6-(cyclopropanesulfonamido)pyridin-2-yl)-N-(5-(6-(trifluoromethyl)pyrazin-2-yl)pyridin-2-yl)butanamide] |
| 100 to 1000 | – | CCC(C(=O)Nc1ccc(-c2cncc(OC(C)C)c2)cc1)c1ccnc(NS(=O)(=O)C2CC2)n1 (stereo not shown) [P101, 2-(2-(cyclopropanesulfonamido)pyrimidin-4-yl)-N-(4-(5-isopropoxypyridin-3-yl)phenyl)butanamide] |
| 100 to 1000 | – | CCOc1cncc(-c2ccc(NC(=O)C(CC)c3cccc(NS(=O)(=O)C4CC4)n3)c(F)c2)n1 (stereo not shown) [P190, 2-(6-(cyclopropanesulfonamido)pyridin-2-yl)-N-(4-(6-ethoxypyrazin-2-yl)-2-fluorophenyl)butanamide] |
| 100 to 1000 | – | CCC(C(=O)Nc1ccc(-c2cncc(C(F)(F)F)c2)cc1)c1ccnc(NS(=O)(=O)C2CC2)n1 (stereo not shown) [P7, 2-(2-(Cyclopropanesulfonamido)pyrimidin-4-yl)-N-(4-(5-(trifluoromethyl)pyridin-3-yl)phenyl)butanamide] |
| 100 to 1000 | – | CCC(C(=O)Nc1ccc(-c2cncc(OCC(F)(F)F)c2)cn1)c1ccnc(NS(=O)(=O)C2CC2)n1 (stereo not shown) [P85] |
| 100 to 1000 | – | CCC(C(=O)Nc1ccc(-c2cccnc2)cc1)c1ccnc(NS(=O)(=O)C2CC2)n1 (stereo not shown) [P102, 2-(2-(cyclopropanesulfonamido)pyrimidin-4-yl)-N-(4-(pyridin-3-yl)phenyl)butanamide] |
| 100 to 1000 | – | CCC(NC(=O)c1ccc(-c2cncc(Cl)c2)cc1)c1ccnc(NS(=O)(=O)C2CC2)n1 (stereo not shown) [P214, 4-(5-chloropyridin-3-yl)-N-(1-(2-(cyclopropanesulfonamido)pyrimidin-4-yl)propyl)benzamide] |
| 100 to 1000 | – | CCC(NC(=O)c1ccc(-c2cncc(C(F)(F)F)c2)cc1F)c1ccnc(NS(=O)(=O)C2CC2)n1 (stereo not shown) [P211, N-(1-(2-(cyclopropanesulfonamido)pyrimidin-4-yl)propyl)-2-fluoro-4-(5-(trifluoromethyl)pyridin-3-yl)benzamide] |
| 100 to 1000 | – | CCC(NC(=O)c1ccc(-c2cncc(C(F)(F)F)n2)cc1)c1ccnc(NS(=O)(=O)C2CC2)n1 (stereo not shown) [P217, N-(1-(2-(cyclopropanesulfonamido)pyrimidin-4-yl)propyl)-4-(6-(trifluoromethyl)pyrazin-2-yl)benzamide] |
| – | 58600 | CS(=O)(=O)Nc1cncc(CC(=O)Nc2ccc(-c3cccnc3)cc2)n1 [P194, 2-(6-(methylsulfonamido)pyrazin-2-yl)-N-(4-(pyridin-3-yl)phenyl)acetamide] |
| ≤ 100 | – | CCOc1cncc(-c2ccc(NC(=O)C(OC)c3cncc(NS(=O)(=O)C4CC4)n3)cc2)n1 (stereo not shown) [P204, 2-(6-(cyclopropanesulfonamido)pyrazin-2-yl)-N-(4-(6-ethoxypyrazin-2-yl)phenyl)-2-methoxyacetamide] |
| 100 to 1000 | – | CCOc1cncc(-c2ccc(C(=O)NC(CC)c3ccnc(NS(=O)(=O)C4CC4)n3)cc2)n1 (stereo not shown) [P219, N-(1-(2-(cyclopropanesulfonamido)pyrimidin-4-yl)propyl)-4-(6-ethoxypyrazin-2-yl)benzamide] |
| 100 to 1000 | – | CCC(C(=O)Nc1ccc(-c2cncc(Cl)c2)cc1F)c1ccnc(NS(=O)(=O)C2CC2)n1 (stereo not shown) [P90, N-(4-(5-chloropyridin-3-yl)-2-fluorophenyl)-2-(2-(cyclopropanesulfonamido)pyrimidin-4-yl)butanamide] |
| 100 to 1000 | – | CCC(C(=O)Nc1ccc(-c2cncc(C#N)c2)cc1)c1ccnc(NS(=O)(=O)C2CC2)n1 (stereo not shown) [P99, N-(4-(5-cyanopyridin-3-yl)phenyI)-2-(2-(cyclopropanesulfonamido)pyrimidin-4-yl)butanamide] |
| ≤ 100 | – | CCC(C(=O)Nc1ccc(-c2cncc(C(F)(F)F)n2)cc1F)c1ccnc(NS(=O)(=O)C2CC2)n1 (stereo not shown) [P94, 2-(2-(cyclopropanesulfonamido)pyrimidin-4-yl)-N-(2-fluoro-4-(6-(trifluoromethyl)pyrazin-2-yl)phenyl)butanamide] |
| 100 to 1000 | – | CCOc1cncc(-c2ccc(C(=O)NC(CC)c3ccnc(NS(=O)(=O)C4CC4)n3)nc2)n1 (stereo not shown) [P210, N-(1-(2-(cyclopropanesulfonamido)pyrimidin-4-yl)propyl)-5-(6-ethoxypyrazin-2-yl)picolinamide] |
| 1000 to 10000 | – | CCC(C(=O)Nc1ccc(-c2cncc(Cl)c2)cc1)c1cccc(NS(=O)(=O)C2CC2)n1 (stereo not shown) [P189, N-(4-(5-chloropyridin-3-yl)phenyl)-2-(6-(cyclopropanesulfonamido)pyridin-2-yl)butanamide] |
| 100 to 1000 | – | CCOc1cncc(-c2ccc(C(=O)NC(CC)c3ccnc(NS(=O)(=O)C4CC4)n3)c(C(F)(F)F)c2)n1 (stereo not shown) [P215, N-(1-(2-(cyclopropanesulfonamido)pyrimidin-4-yl)propyl)-4-(6-ethoxypyrazin-2-yl)-2-(trifluoromethyl)benzamide] |
